Here are results for three molecules from patent publication US20240217997A1 (priority 2021, published 2024).

≈ marks a conversion by molar mass, not a printed value. Read-outs that look alike come from different tables or passages of the source.

The subject of assay [1] is Mycobacterium tuberculosis. The experiment in a line: microbe, parasite or virus in culture.
Another assay deals with Plasmodium falciparum. The experiment in a line: Plasmodium falciparum minimum inhibitory concentration (MIC), Table 4. It is filed as cell-based.
A further assay has as its target P. falciparum DXR (Plasmodium falciparum, UniProt Q8IKG4). The conditions noted are these: cited from earlier work.

Chain of P. falciparum DXR (Q8IKG4 73-488): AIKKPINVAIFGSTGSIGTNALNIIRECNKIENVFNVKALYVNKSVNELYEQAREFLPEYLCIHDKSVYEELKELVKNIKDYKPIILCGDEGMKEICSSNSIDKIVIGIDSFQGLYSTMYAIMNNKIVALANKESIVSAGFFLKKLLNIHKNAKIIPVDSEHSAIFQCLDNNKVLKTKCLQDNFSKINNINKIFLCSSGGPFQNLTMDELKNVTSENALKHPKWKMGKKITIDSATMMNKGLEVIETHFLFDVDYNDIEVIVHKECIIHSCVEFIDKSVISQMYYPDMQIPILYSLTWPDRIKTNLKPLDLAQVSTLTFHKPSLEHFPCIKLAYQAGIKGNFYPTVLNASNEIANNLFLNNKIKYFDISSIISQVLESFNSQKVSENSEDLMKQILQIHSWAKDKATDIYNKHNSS

Turning to `NNC(=O)c1ccncc1` [Isoniazid], the MIC came out at 0.02 µg/mL (≈ 0.146 µM) in assay [1] (168 h, read-out: 1-week MIC 7H9/glucose/BSA/Tx); 0.02 µg/mL (≈ 0.146 µM) in assay [1] (168 h, read-out: 1-week MIC 7H9/glucose/casitone/Tx); 0.03 µg/mL (≈ 0.219 µM) in assay [1] (168 h, read-out: 1-week MIC 7H9/glycerol/glucose/BSA/Tween); 0.03 µg/mL (≈ 0.219 µM) in assay [1] (336 h, read-out: 2-week MIC 7H9/glucose/BSA/Tx); 0.02 µg/mL (≈ 0.146 µM) in assay [1] (336 h, read-out: 2-week MIC 7H9/glucose/casitone/Tx); 0.039 µg/mL (≈ 0.284 µM) in assay [1] (336 h, read-out: 2-week MIC 7H9/glycerol/glucose/BSA/Tween).
On to `O=CN(O)CCCP(=O)(O)O` [Fosmidomycin], for which the “MIC, Mean” value against Plasmodium falciparum (Mean of Runs 1-3) was determined as 0.9075 µg/mL (≈ 4.96 µM). Further, in the assay on Plasmodium falciparum (Run 1), the “MIC, Run 1” value is 1.391 µg/mL (≈ 7.6 µM). Besides, the “MIC, Run 2” value against Plasmodium falciparum (Run 2) is 0.7607 µg/mL (≈ 4.15 µM). In the assay with Plasmodium falciparum (Run 3), the “MIC, Run 3” value amounted to 0.5708 µg/mL (≈ 3.12 µM).
As usually defined, the IC50 is the concentration at which inhibition is half-maximal. On to `CC(=O)N(O)CCCP(=O)(O)O` [FR900098], for which, at P. falciparum DXR, the IC50 is 24 nM.
